According to ChEMBL document CHEMBL1157574 (J Med Chem, 2010):

Columns and labels:
Aromatase [1] = target: T1, Aromatase (Homo sapiens, UniProt P11511)
T1 sequence (P11511 whole entry): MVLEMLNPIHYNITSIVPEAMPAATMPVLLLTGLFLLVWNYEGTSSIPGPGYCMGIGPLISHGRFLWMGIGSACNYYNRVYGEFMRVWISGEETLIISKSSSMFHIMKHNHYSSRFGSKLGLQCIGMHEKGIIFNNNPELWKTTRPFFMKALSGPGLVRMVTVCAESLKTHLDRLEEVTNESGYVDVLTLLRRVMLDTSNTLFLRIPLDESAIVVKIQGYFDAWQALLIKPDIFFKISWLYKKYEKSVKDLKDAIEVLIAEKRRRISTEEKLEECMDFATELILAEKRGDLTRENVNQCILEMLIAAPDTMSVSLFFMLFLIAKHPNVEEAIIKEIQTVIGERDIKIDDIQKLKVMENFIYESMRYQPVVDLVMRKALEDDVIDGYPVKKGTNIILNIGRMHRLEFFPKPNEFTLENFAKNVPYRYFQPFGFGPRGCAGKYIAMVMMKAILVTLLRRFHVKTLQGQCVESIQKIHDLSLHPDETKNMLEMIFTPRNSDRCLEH
Description: Inhibition of aromatase in human JEG3 cells by scintillation spectrometry

Rattus norvegicus [2] = experiment: Inhibition of aromatase in Wistar rat assessed as inhibition of PMSG-induced plasma E2 level at 1 mg/kg, po administered after 3 days of PMSG challenge by radioimmunoassay; format: functional
Rattus norvegicus [3] = experiment: Inhibition of steroid sulfatase in PMSG-pretreated Wistar rat at 1 mg/kg, po administered after 3 days of PMSG challenge by liquid scintillation spectrometry; format: functional
Rattus norvegicus [4] = experiment: Inhibition of aromatase in PMSG-pretreated Wistar rat at 1 mg/kg, po administered after 3 days of PMSG challenge by radioimmunoassay
Aromatase [5] = target: T1, Aromatase; experiment: Inhibition of aromatase in human JEG3 cells at 10 uM by scintillation spectrometry; format: cell-based; conditions: JEG-3, human
Steryl-sulfatase = target: T2, Steryl-sulfatase (Homo sapiens, UniProt P08842); experiment: Inhibition of steroid sulfatase in human JEG3 cells by scintillation spectrometry; format: cell-based, JEG-3
T2 sequence (P08842 whole entry): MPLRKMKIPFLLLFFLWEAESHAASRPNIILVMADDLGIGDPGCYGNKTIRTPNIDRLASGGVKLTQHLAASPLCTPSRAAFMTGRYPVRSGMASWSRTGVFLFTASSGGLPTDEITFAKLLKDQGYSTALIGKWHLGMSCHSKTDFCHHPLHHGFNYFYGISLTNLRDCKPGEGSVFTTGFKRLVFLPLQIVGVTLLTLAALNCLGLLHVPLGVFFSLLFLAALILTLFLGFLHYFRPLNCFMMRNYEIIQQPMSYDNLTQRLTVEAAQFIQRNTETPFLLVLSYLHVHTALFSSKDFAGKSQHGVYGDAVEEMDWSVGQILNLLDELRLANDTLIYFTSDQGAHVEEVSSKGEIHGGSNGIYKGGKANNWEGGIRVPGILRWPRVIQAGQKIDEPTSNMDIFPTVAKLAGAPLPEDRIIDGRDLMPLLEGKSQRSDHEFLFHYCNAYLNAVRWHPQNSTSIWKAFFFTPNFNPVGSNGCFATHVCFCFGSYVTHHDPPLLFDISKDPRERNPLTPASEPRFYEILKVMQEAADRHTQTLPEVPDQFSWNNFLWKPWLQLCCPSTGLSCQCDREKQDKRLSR

Aromatase [6] = target: T1, Aromatase; experiment: Inhibition of aromatase in human JEG3 cells at 1 uM by scintillation spectrometry; format: cell-based, JEG-3; conditions: for inhibition (INH): human, jeg-3, 1 µM
Aromatase [7] = target: T1, Aromatase; experiment: Inhibition of aromatase in human JEG3 cells at 0.1 uM by scintillation spectrometry; format: cell-based; conditions: JEG-3, human
Rattus norvegicus [8] = experiment: Estrogenic toxicity in Wistar rat assessed as increase in uterine weight at 10 mg/kg, po for 4 days; format: organism-based; parameters: dose 10 mg/kg, route oral; conditions: in vivo, 96 h
[9] = target: T3, Steryl-sulfatase (Homo sapiens) (UniProt P08842); experiment: Inhibition of steroid sulfatase in human JEG3 cells at 10 uM by scintillation spectrometry; format: cell-based; conditions: JEG-3
T3 sequence (whole entry): T2 sequence (P08842 whole entry)

Rattus norvegicus [10] = experiment: Inhibition of aromatase in Wistar rat assessed as inhibition of PMSG-induced plasma E2 level at 0.1 mg/kg, po administered after 3 days of PMSG challenge by radioimmunoassay; format: functional
Rattus norvegicus [11] = experiment: Inhibition of aromatase in PMSG-pretreated Wistar rat plasma at 0.1 mg/kg, po administered after 3 days of PMSG challenge by radioimmunoassay; format: functional
Rattus norvegicus [12] = experiment: Inhibition of steroid sulfatase in PMSG-pretreated Wistar rat liver at 0.1 mg/kg, po administered after 3 days of PMSG challenge by liquid scintillation spectrometry

| Structure (SMILES) | IC50 (Aromatase [1]) [nM] | IC50 (Steryl-sulfatase) [nM] | also measured |
| --- | --- | --- | --- |
| N#Cc1cc(Cn2cncn2)ccc1-c1ccccc1 | 4.6 | – | – |
| N#Cc1ccc(Cn2cncn2)cc1-c1ccc(O)c(Cl)c1 | – | – | plasma estradiol (E2) level (Rattus norvegicus [2]): 297 pg/mL; inhibition in vivo at 1 mg/kg (Rattus norvegicus [3]): 5%; inhibition in vivo at 1 mg/kg (Rattus norvegicus [4]): 11% |
| N#Cc1ccc(-c2ccc(OS(N)(=O)=O)cc2)c(C#N)c1 | – | 16.3 | inhibition at 10 µM (Aromatase [5]): 47% |
| CN(C)S(=O)(=O)Oc1ccc(-c2cc(Cn3cncn3)ccc2C#N)cc1 | 0.5 | > 10000 | – |
| c1ccc(-c2cccc(Cn3cncn3)c2)cc1 | 210 | – | – |
| N#Cc1ccc(Cn2cncn2)cc1-c1cccc(Cl)c1 | 0.22 | – | – |
| N#Cc1cc(Cn2cncn2)cc(-c2ccc(OS(N)(=O)=O)c(Cl)c2)c1 | 80 | 6330 | – |
| N#Cc1cc(Cn2cncn2)ccc1-c1ccc(OS(N)(=O)=O)cc1 | 284 | 28.6 | – |
| N#Cc1ccc(-c2ccc(OS(N)(=O)=O)c(Cl)c2)cc1Cn1cncn1 | 146 | 32.6 | – |
| N#Cc1ccc(-c2ccc(O)cc2)cc1Cn1cncn1 | – | – | inhibition (INH) (Aromatase [6]): 76.4%; inhibition at 0.1 µM (Aromatase [7]): 35.1% |
| N#Cc1ccc(Cn2cncn2)cc1-c1ccccc1 | 0.2 | – | – |
| N#Cc1ccc(N(Cc2ccc(OS(N)(=O)=O)c(Br)c2)n2cnnc2)cc1 | – | – | Activity (Rattus norvegicus [8]): Non-toxic |
| CC(C)(C#N)c1cc(Cn2cncn2)cc(-c2ccc(OS(N)(=O)=O)cc2)c1 | 17.5 | > 10000 | – |
| Oc1ccc(-c2cccc(Cn3cncn3)c2)cc1Cl | – | – | inhibition (INH) (Aromatase [6]): 85.3%; inhibition at 0.1 µM (Aromatase [7]): 36.6% |
| N#Cc1cc(Cn2cncn2)cc(-c2ccc(O)cc2)c1 | 112 | – | – |
| N#Cc1ccc(Cn2cncn2)cc1-c1ccc(OS(N)(=O)=O)cc1 | 2 | 35 | plasma estradiol (E2) level (Rattus norvegicus [2]): 124 pg/mL; inhibition in vivo at 1 mg/kg (Rattus norvegicus [3]): 77%; inhibition in vivo at 1 mg/kg (Rattus norvegicus [4]): 63% |
| N#Cc1ccc(Cn2cncn2)cc1-c1ccc(O)cc1 | 0.2 | – | plasma estradiol (E2) level (Rattus norvegicus [2]): 94 pg/mL; inhibition in vivo at 1 mg/kg (Rattus norvegicus [3]): 10%; inhibition in vivo at 1 mg/kg (Rattus norvegicus [4]): 72% |
| CC(C)(C#N)c1cc(Cn2cncn2)cc(-c2ccccc2)c1 | 0.5 | – | – |
| N#Cc1ccc(-c2cccc(OS(N)(=O)=O)c2)cc1Cn1cncn1 | – | > 10000 | inhibition at 1 µM (Aromatase [6]; JEG-3, human): 63.4% |
| NS(=O)(=O)Oc1ccc(-c2cccc(Cn3cncn3)c2)cc1 | 275 | 5500 | – |
| N#Cc1ccc(Cn2cncn2)cc1-c1ccc(Cl)c(O)c1 | 0.22 | – | – |
| CC(C)(C#N)c1cc(Cn2cncn2)cc(-c2ccc(O)c(Cl)c2)c1 | 0.1 | – | – |
| CCCN1C(=O)CC2C3CCc4cc(OS(N)(=O)=O)ccc4C3CC[C@]2(C)C1=O (stereo partly specified) | – | – | inhibition in vivo at 1 mg/kg (Rattus norvegicus [3]): 99% |

| Structure (SMILES) | IC50 (Aromatase [1]) [nM] | IC50 (Steryl-sulfatase) [nM] | also measured |
| --- | --- | --- | --- |
| N#Cc1cc(Cn2cncn2)cc(-c2ccc(F)cc2)c1 | 19 | – | – |
| N#Cc1cc(Cn2cncn2)cc(-c2ccc(OS(N)(=O)=O)cc2)c1 | 280 | > 10000 | – |
| N#Cc1ccc(Cn2cncn2)c(-c2ccccc2)c1 | 1.7 | – | – |
| N#Cc1ccc(-c2ccc(OS(N)(=O)=O)cc2)cc1Cn1cncn1 | 176 | 140 | – |
| N#Cc1ccc(Cn2cncn2)cc1-c1ccc(OS(N)(=O)=O)c(Cl)c1 | – | 5.5 | plasma estradiol (E2) level (Rattus norvegicus [2]): 132 pg/mL; inhibition in vivo at 1 mg/kg (Rattus norvegicus [3]): 92%; Activity (Rattus norvegicus [8]): Non-toxic; inhibition in vivo at 1 mg/kg (Rattus norvegicus [4]): 60% |
| N#Cc1ccc(-c2cc(C#N)cc(Cn3cncn3)c2)cc1 | 52 | – | – |
| CN(C)S(=O)(=O)Oc1ccc(-c2cc(Cn3cncn3)ccc2C#N)cc1Cl | 2.4 | > 10000 | – |
| N#Cc1ccc(-c2cccc(O)c2)cc1Cn1cncn1 | 14.4 | – | – |
| N#Cc1cc(Cn2cncn2)ccc1-c1ccc(O)c(Cl)c1 | 380 | – | – |
| Oc1ccc(-c2cccc(Cn3cncn3)c2)cc1 | – | – | inhibition (INH) (Aromatase [6]): 79%; inhibition at 0.1 µM (Aromatase [7]): 24.6% |
| N#Cc1ccc(-c2ccc(O)c(Cl)c2)cc1Cn1cncn1 | 74 | – | – |
| N#Cc1ccc(Cn2cncn2)c(-c2ccc(O)c(Cl)c2)c1 | 0.8 | – | – |
| CC(C)(C#N)c1cc(Cn2cncn2)cc(-c2ccc(OS(N)(=O)=O)c(Cl)c2)c1 | 0.3 | – | inhibition [9]: 68.2% |
| N#Cc1ccc(-c2ccccc2)cc1Cn1cncn1 | – | – | inhibition (INH) (Aromatase [6]): 68.8%; inhibition at 0.1 µM (Aromatase [7]): 23.9% |
| N#Cc1cc(Cn2cncn2)ccc1-c1ccc(O)cc1 | 920 | – | – |
| N#Cc1cc(Cn2cncn2)ccc1-c1ccc(OS(N)(=O)=O)c(Cl)c1 | 571 | 29 | – |
| N#Cc1ccc(Cn2cncn2)c(-c2ccc(OS(N)(=O)=O)c(Cl)c2)c1 | 1.9 | > 10000 | – |
| N#Cc1ccc(C(c2ccc(C#N)cc2)n2cncn2)cc1 [LETROZOLE] | – | – | Activity (Rattus norvegicus [10]): 49 pg/mL; inhibition in vivo at 0.1 mg/kg (Rattus norvegicus [11]): 85%; inhibition in vivo at 0.1 mg/kg (Rattus norvegicus [12]): 0% |
| N#Cc1cc(Cn2cncn2)cc(-c2ccccc2)c1 | 29.3 | – | – |
| N#Cc1ccc(Cn2cncn2)cc1-c1ccc(Cl)c(OS(N)(=O)=O)c1 | 0.35 | > 10000 | – |
| N#Cc1cc(Cn2cncn2)cc(-c2ccc(O)c(Cl)c2)c1 | 24 | – | – |
| NS(=O)(=O)Oc1ccc(-c2cccc(Cn3cncn3)c2)cc1Cl | 70 | 160 | – |
| CC(C)(C#N)c1cc(Cn2cncn2)cc(-c2ccc(O)cc2)c1 | 6 | – | – |
